Data on six compounds can be found in patent US6011047A, “Substituted 3-amino-2-hydroxyphenylacetamide derivatives as enzyme inhibitors” (priority 1997, dated 2000).

Data set [1] has as its target T1, human alpha-thrombin (Homo sapiens, UniProt P00734). The experiment in a line: in vitro thrombin inhibition assay (Ki, chromogenic substrate Pefachrome t-PA). The class given is biochemical. The settings on record: human alpha-thrombin 0.2 nM; steady state velocities over 60 minutes; pH 7.5. How it is done: The ability of the compounds of Example 11 and 14 to act as an inhibitor of thrombin catalytic activity was assessed by determining the compounds, inhibition constant, Ki.
Enzyme activity was determined using the chromogenic substrate Pefachrome t-PA (CH3 SO2 -D-hexahydrotyrosine-glycyl-L-arginine-p-Nitroanilide), obtained from Pentapharm Ltd. The substrate was reconstituted in deionized water prior to use. Purified human alpha-thrombin (3000U/mg specific activity) was obtained from Enzyme Research Laboratories, Inc. The buffer used for all assays was HBSA (10 mM HEPES, pH 7.5, 150 mM sodium chloride, 0.1% bovine serum albumin).
At time zero, 50 microliters of alpha-thrombin diluted in HBSA were added to the wells, yielding a final concentration of 0.2 nM in a total volume of 250 microliters. Velocities of chromogenic substrate hydrolysis which occurred over 60 minutes were measured by the change in absorbance at 405 nm using a Thermo Max® Kinetic Microplate Reader. […] The extent of substrate hydrolysis was less than 5% over the course of this assay.

Data set [2] addresses T1, human alpha-thrombin. Put plainly: Thrombin (fIIa) IC50 assay for specificity determination. The class given is biochemical. The settings on record: 30-minute incubation. How it is done: (§1) The ability of compounds of this invention to act as a selective inhibitor of thrombin catalytic activity was assessed by determining the concentration of test compound which inhibited the activity of this enzyme by 50%, (IC50), and comparing this value to that determined for some or all of the following related serine proteases: recombinant tissue plasminogen activator (rt-PA), plasmin, activated protein C (aPC), chymotrypsin and trypsin.
(§2) The buffer used for all assays was HBSA (10 mM HEPES, pH 7.5, 150 mM sodium chloride, 0.1% bovine serum albumin). The assay for IC50 determinations was conducted by combining in appropriate wells of a Corning microtiter plate, 50 microliters of HBSA, 50 microliters of the test compound at a specified concentration (covering a broad concentration range) diluted in HBSA (or HBSA alone for Vo (uninhibited velocity) measurement), and 50 microliters of the enzyme diluted in HBSA. […] The initial velocity of chromogenic substrate hydrolysis was measured by the change in absorbance at 405 nm using a Thermo Max® Kinetic Microplate Reader over a 5 minute period in which less than 5% of the added substrate was utilized. […]
Enzyme activity was determined using the chromogenic substrate, Pefachrome t-PA (CH3 SO2 -D-hexahydrotyrosine-glycyl-L-Arginine-p-nitroaniline, obtained from Pentapharm Ltd.). […]

Another data set has as its target T2, rt-PA (Homo sapiens, UniProt P00750).
T2 construct: purchased Genentech Inc. Activase
Put plainly: Recombinant tissue plasminogen activator (rt-PA) IC50 assay. The class given is biochemical. To be noted: maximal concentration 2500 nM. As for the experimental part: as §1, §2
rt-PA catalytic activity was determined using the substrate, Pefachrome t-PA (CH3 SO2 -D-hexahydrotyrosine-glycyl-L-arginine-p-nitroanilide, obtained from Pentapharm Ltd.). […]

A further data set has as its target Plasmin (Homo sapiens, UniProt P00747). Put plainly: Plasmin IC50 assay. The class given is biochemical. The settings on record: maximal concentration 2500 nM. As for the experimental part:
as §1, §2
Plasmin catalytic activity was determined using the chromogenic substrate, S-2366 (L-pyro-Glu-Pro-Arg-pNa.HCl), which was obtained from DiaPharma Group. […]

The target of a further data set is T3, aPC (Homo sapiens, UniProt P04070).
T3 construct: purchased Hematologic Technologies, Inc
T3 sequence (P04070 212-450 limits assumed): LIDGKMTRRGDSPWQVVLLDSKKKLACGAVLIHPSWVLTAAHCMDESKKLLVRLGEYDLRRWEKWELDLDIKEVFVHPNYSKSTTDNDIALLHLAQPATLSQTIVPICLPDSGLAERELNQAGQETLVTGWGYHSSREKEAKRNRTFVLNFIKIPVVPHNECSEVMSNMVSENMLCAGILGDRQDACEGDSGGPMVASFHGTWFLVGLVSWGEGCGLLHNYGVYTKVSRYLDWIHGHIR
T3 sequence (P04070 43-197 limits assumed): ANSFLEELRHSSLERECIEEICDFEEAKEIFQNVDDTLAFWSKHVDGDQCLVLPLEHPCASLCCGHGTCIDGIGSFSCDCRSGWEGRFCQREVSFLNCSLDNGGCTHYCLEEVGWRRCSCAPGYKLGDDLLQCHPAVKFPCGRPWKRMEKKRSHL
Put plainly: Activated protein C (aPC) IC50 assay. The class given is biochemical. The settings on record: maximal concentration 2500 nM. How it is done:
as §1, §2
aPC catalytic activity was determined using the chromogenic substrate, Pefachrome PC (delta-carbobenzloxy-D-lysine-L-prolyl-L-arginine-p-nitroanilide), obtained from Pentapharm Ltd.). […]

In a further data set the target is T4, Chymotrypsin (Bos taurus, UniProt P00766).
T4 construct: bovine pancreatic a-chymotrypsin; purchased Worthington Biochemical Corp. CDI; host or cells: bovine pancreas
Put plainly: Chymotrypsin IC50 assay. The class given is biochemical, bovine. To be noted: maximal concentration 2500 nM. How it is done:
as §1, §2
Chymotrypsin catalytic activity was determined using the chromogenic substrate, S-2586 (methoxy-succinyl-L-arginine-L-prolyl-L-tyrosyl-p-nitroanilide), which was obtained from DiaPharma Group. […]

Another data set concerns the target T5, Trypsin (Bos taurus, UniProt P00760).
T5 construct: bovine pancreatic trypsin; purchased Worthington Biochemical Corp. TRL3; host or cells: bovine pancreas
T5 sequence (P00760 24-246): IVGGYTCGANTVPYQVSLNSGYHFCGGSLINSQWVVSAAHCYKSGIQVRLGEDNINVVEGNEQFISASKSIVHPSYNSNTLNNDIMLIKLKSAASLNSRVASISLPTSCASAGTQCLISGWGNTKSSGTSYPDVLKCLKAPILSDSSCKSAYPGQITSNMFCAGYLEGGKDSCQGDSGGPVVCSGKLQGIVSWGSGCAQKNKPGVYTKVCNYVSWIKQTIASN
Put plainly: Trypsin IC50 assay. The settings on record: 30-minute incubation. The class given is biochemical, bovine. How it is done: as §1, §2
Trypsin catalytic activity was determined using the chromogenic substrate, S-2222 (benzoyl-L-isoleucine-L-glutamic acid-(gamma-methyl ester)-L-arginine-p-nitroanilide), which was obtained from DiaPharma Group. […]

For data set [3] the following is noted: in words; cited from earlier work.
Data set [4] has as its system atherosclerotic rabbit femoral artery. The settings on record: in words; cited from earlier work.
In the next data set the test system is thrombin. The settings on record: in words; cited from earlier work.
For data set [5] the following is noted: in words; cited from earlier work. This is another data set of the same source.
The conditions of data set [6]: in words; cited from earlier work. This is another data set of the same source.
In data set [7] the test system is thrombotic occlusion in rat carotid artery. The settings on record: dose that prevents complete thrombotic occlusion in 50% of animals, FeCl3 model; cited from earlier work.

Plasmin, sequence (P00747 581-810 limits assumed): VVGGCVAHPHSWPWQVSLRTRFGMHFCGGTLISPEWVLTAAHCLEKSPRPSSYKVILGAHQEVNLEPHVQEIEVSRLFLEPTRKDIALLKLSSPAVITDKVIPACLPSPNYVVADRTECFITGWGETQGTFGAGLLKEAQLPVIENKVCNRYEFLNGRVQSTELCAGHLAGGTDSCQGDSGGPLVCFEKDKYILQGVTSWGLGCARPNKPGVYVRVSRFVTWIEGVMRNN
Plasmin, sequence (P00747 97-580 limits assumed): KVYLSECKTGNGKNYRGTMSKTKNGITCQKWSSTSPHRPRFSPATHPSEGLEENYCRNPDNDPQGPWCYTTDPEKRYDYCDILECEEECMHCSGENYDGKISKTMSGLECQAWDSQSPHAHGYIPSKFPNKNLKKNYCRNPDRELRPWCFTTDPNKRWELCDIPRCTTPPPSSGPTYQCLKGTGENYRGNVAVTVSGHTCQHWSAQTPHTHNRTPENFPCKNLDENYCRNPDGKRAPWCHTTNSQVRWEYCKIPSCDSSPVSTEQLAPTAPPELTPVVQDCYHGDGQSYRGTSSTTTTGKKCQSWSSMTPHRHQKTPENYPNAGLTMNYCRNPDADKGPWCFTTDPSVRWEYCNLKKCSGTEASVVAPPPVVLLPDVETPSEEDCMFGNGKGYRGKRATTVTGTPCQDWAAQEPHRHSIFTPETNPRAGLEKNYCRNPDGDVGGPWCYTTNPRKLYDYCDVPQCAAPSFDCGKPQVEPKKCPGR
T2 sequence (P00750 36-562): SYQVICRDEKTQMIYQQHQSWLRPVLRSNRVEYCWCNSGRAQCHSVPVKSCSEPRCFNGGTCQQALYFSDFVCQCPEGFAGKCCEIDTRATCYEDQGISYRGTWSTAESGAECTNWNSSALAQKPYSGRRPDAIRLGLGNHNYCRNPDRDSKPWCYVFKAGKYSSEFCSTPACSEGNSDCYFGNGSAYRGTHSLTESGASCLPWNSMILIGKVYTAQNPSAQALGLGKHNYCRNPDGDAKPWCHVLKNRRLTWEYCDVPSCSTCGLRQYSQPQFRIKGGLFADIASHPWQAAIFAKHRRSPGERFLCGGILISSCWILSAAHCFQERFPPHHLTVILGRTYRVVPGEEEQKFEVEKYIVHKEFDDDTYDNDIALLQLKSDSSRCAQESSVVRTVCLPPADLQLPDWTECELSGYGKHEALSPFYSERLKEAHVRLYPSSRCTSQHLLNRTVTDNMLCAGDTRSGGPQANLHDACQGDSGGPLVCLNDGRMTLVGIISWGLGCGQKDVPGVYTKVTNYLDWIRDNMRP

In general, Ki refers to the equilibrium dissociation constant of an inhibitor or competing ligand from its target. The term IC50 denotes the concentration at which inhibition is half-maximal. The compound `COc1c(NS(=O)(=O)Cc2ccccc2)ccc(C)c1CC(=O)N[C@H](C=O)CCCN=C(N)N` [Example 14, N-[2-methoxy-3-(N-benzylsulfonylamino)-6-methylphenylacetyl]-L-argininal] displayed a Ki at human alpha-thrombin [1] of 1 nM. Moreover, the IC50 is 1.44 nM at human alpha-thrombin [2]; above 2500 nM at rt-PA; above 2500 nM at Plasmin; above 2500 nM on aPC; above 2500 nM on Chymotrypsin; 1810 nM against Trypsin.

As to Hirudin, the “antithrombotic / anticoagulant effect” value in data set [3] is “potent antithrombotic agent in vivo”. Further, the “inhibition of smooth muscle proliferation and associated restenosis” value in data set [4] was “effectively inhibit smooth muscle proliferation and the associated restenosis”.

As for `N=C(N)c1ccc(CC(=O)C(=O)O)cc1` [APPA, 4-amidinophenylpyruvic acid], the “selectivity of thrombin inhibition” value with thrombin was “non-selective, inhibiting trypsin, plasmin and kallikrein”. Also, the toxicity result in data set [5] was “low toxicity”. Besides, the pharmacokinetics result in data set [6] is “favourable pharmacokinetics”.

Usually ED50 stands for the dose that gives a 50% effect, or the effect in half of the subjects. Turning to `CC1CNc2c(cccc2S(=O)(=O)N[C@@H](CCCNC(=N)N)C(=O)N2CC[C@@H](C)C[C@@H]2C(=O)O)C1` (stereo partly drawn) [Argatroban, 2R,4R-4-methyl-1-[N-2-(3-methyl-1,2,3,4-tetrahydro-8-quinolinesulfonyl)-L-argininy]-2-piperdinecarboxylic acid], in data set [7], the ED50 is 3.8 mg/kg.

For the compound `CS(=O)(=O)O.CS(=O)(=O)O.N=C(N)Nc1ccc(C(=O)Oc2ccc3cc(C(=N)N)ccc3c2)cc1` [FUT 175, 6-amidino-2-naphthyl-4-guanidinobenzoate dimethanesulfonate], in the data set with thrombin, the “selectivity of thrombin inhibition” value is on record as “non-selective”.

Consider `Cc1ccc(NS(=O)(=O)Cc2ccccc2)c(O)c1CC(=O)N[C@H](C=O)CCCN=C(N)N` [Example 11, N-[2-hydroxy-3-(N-benzylsulfonylamino)-6-methylphenylacetyl]-L-argininal], for which, at human alpha-thrombin [1], the Ki turned out to be 0.79 nM. The IC50 on human alpha-thrombin [2] is 3.19 nM; at rt-PA, above 2500 nM; at Plasmin, above 2500 nM; against aPC, above 2500 nM; on Chymotrypsin it was above 2500 nM; against Trypsin it was 1140 nM.
